We go through 6 molecules from US3970651A, “Crystalline cephalosporin derivative” (priority 1974, dated 1976).

Data set [1] concerns S. aureus 209P (A.T.C.C. 6538P). Description: Bioassay, turbidometric. It counts as cell-based.
The conditions of data set [2]: for Behaviour when suspended in water: aqueous suspension.
The subject of data set [3] is bacterial infections. Description: In vitro antibacterial potency and spectrum. It counts as cell-based.
Data set [4] has as its system bacterial infections. Description: In vivo antibacterial activity.
The next data set in a line: in vivo. The following applies: dog, po, 30 mg/kg. As for the experimental part: Three beagle dogs (mean weight of 8.2 ± 0.4 kg.) were administered 200 mesh 7-[D-α-amino-α-(p-hydroxyphenyl)acetamido]-3-(1,2,3-triazol-5-ylthiomethyl)-3-cephem-4-carboxylic acid propylene glycolate (bioassay 820 mcg./mgm.) orally at doses of 30 mg. of activity/kg. in hard gelatin capsules. All doses and concentrations reported herein are in terms of the amphoteric material and were corrected for differences in biopotency.

The nature of a further data set: Water solubility. It counts as physicochemical. The following applies: in water at 23° C.
Data set [5] is described as follows: Heat stability / loss of bioactivity of the solid on storage at elevated temperatures.
The mark [6] stands for this setting: allowance made for inert propylene glycol.

Each structure is given as a SMILES string. Converted amounts (≈) assume the structure as drawn. “And” between values parts separate entries of the source, which are not always exact repeats. Equal values may be shown once. Read-outs that look alike come from different tables or passages of the source.

In data set [1], `CO.N[C@@H](C(=O)NC1C(=O)N2C(C(=O)O)=C(CSc3cnn[nH]3)CS[C@H]12)c1ccc(O)cc1` (stereo partly drawn) [BL-S640 methanolate, 7-[D-α-amino-α-(p-hydroxyphenyl)acetamido]-3-(1,2,3-triazol-5-ylthiomethyl)-3-cephem-4-carboxylic acid Methanolate] showed a Bio-assay of 850 to 900 µg/mg.

As for `N[C@@H](C(=O)NC1C(=O)N2C(C(=O)O)=C(CSc3c[nH]nn3)CSC12)c1ccc(O)cc1` (stereo partly drawn) [ethanolate], the “Behaviour when suspended in water” value in data set [2] is “gradually lost its ethanol to change into a solid tacky form which lost crystallinity, did not suspend evenly and gummed in time”.

As for `N[C@@H](C(=O)NC1C(=O)N2C(C(=O)O)=C(CSc3cnn[nH]3)CS[C@H]12)c1ccc(O)cc1` (stereo partly drawn) [BL-S640, 7-[D-α-amino-α-(p-hydroxyphenyl)acetamido]-3-(1,2,3-triazol-5-ylthiomethyl)-3-cephem-4-carboxylic acid], the “Degradation in water at alkaline pH” value in data set [2] (pH 7) is “degrades very rapidly, as by loss of the thiol moiety”.

Consider `C=CC.N[C@@H](C(=O)NC1C(=O)N2C(C(=O)O)=C(CSc3cnn[nH]3)CS[C@H]12)c1ccc(O)cc1.O=C(O)CO` (stereo partly drawn) [BL-S640 mono-propylene glycolate, 7-[D-α-amino-α-(p-hydroxyphenyl)acetamido]-3-(1,2,3-triazol-5-ylthiomethyl)-3-cephem-4-carboxylic acid mono-propylene glycolate], for which, in the data set with bacterial infections [3] (setting [6]), the “Potency and spectrum in vivo and in vitro versus the zwitterion product” value was “substantially the same potency and spectrum in vivo and in vitro”. The Bio-assay in data set [1] was 865 µg/mg. The calculated potency in data set [1] (15.6% 1,2-propylene glycol, 0.3% water) was 865 µg/mg. Moreover, in data set [2], the “Behaviour when suspended in water” value was “does not lose biological activity or crystallinity and does not oil, suspend unevenly, clump, settle out or become tacky”. Besides, the “Potency and spectrum in vivo versus the zwitterion product” value with bacterial infections [4] (setting [6]) is “substantially the same potency and spectrum in vivo and in vitro”.

On to `N[C@@H](C(=O)NC1C(=O)N2C(C(=O)O)=C(CSc3c[nH]nn3)CSC12)c1ccc(O)cc1` (stereo partly drawn) [BL-S640 mono-methanolate], for which the Bio-assay in data set [1] was 930-960 units/mg.

With `N[C@@H](C(=O)NC1C(=O)N2C(C(=O)O)=C(CSc3c[nH]nn3)CSC12)c1ccc(O)cc1` (stereo partly drawn) [BL-S640 propylene glycolate, 7-[D-α-amino-α-(p-hydroxyphenyl)acetamido]-3-(1,2,3-triazol-5-ylthiomethyl)-3-cephem-4-carboxylic acid 1,2-propylene glycolate], in the data set on bacterial infections [3] (in vitro, versus Ser. No. 318,340), the “In vitro potency and spectrum of activity” value was “exhibits the potency and spectrum of activity reported in the above-referenced application Ser. No. 318,340 in a qualitative sense and usually also quantitatively except when it is possible to observe slightly less activity due to its content of the biologically inert propylene glycol”. The bioassay in data set [1] (200 mesh lot dosed to dogs) stood at 820 mcg./mgm. This molecule also yielded an assigned potency in data set [1] (bioassay standard, 16.7% 1,2-propylene glycol, 0.3% water) of 820 mcg./mgm. For the same molecule, in data set [1] (capsule blend), the “potency of composite blend” value amounted to 834 µg/mg. Besides, the Bio-assay in data set [1] (listed as 1,2-propylene glycolate) was in the range of 800 to 850 µg/mg. In addition, the Bio-assay in data set [1] (listed as propylene glycolate) is 750 to 790 µg/mg and 800 to 860 µg/mg. Further, in “in vivo”, the concentration at 0.08 h was determined as 40 ng/mL, the concentration at 0.25 h was determined as 300 ± 100 ng/mL, the concentration at 0.5 h came to 5900 ± 2000 ng/mL and the concentration at 1.05 h was determined as 8400 ng/mL. Moreover, in the data set “in vivo”, the concentration at 1.5 h is 17700 ± 2000 ng/mL, the concentration at 2 h was 18700 ± 900 ng/mL, the concentration at 3 h was 13700 ± 1200 ng/mL and the concentration at 4 h was found to be 8400 ± 1300 ng/mL. In the data set “in vivo”, the concentration at 6 h was 3200 ± 400 ng/mL, the concentration at 8 h was 1600 ± 200 ng/mL and the half-life (usually the time needed for the level to fall by half in the phase considered) was approximately 1.36 h. In addition, the solubility (in general, how much of the substance goes into solution per volume) in the data set “Water solubility” was approximately 10000 µg/mL (≈ 21.6 mM). Further, in data set [2] (listed as propylene glycolate), the “Behaviour when suspended in water” value is “does not lose biological activity, lose crystallinity, suspend unevenly, oil, clump, settle out or become tacky”. The In vivo results with bacterial infections [4] (dosed on a potency basis in terms of the zwitterion) is “substantially the same”. The “Loss of bioactivity on storage as a solid” value in data set [5] (56°C., one month, usual stringent test conditions) is given as “no more than ten”. In data set [5] (solid), this molecule yielded a degraded at 24 h of less than 6%, a degraded at 48 h of less than 12% and a degraded at 720 h of less than 10%.
